Data from patent US20230398130A1, “METHODS AND COMPOSITIONS FOR DIFFERENTIATING STEM CELLS” (Massachusetts Institute of Technology, priority 2020, published 2023).

Experiments:
ISC-enriched organoids [1] = test: Primary screen, 384-well 2.5-D organoid differentiation (ENR+CD, 6 days): basal lysozyme secretion (LYZ.NS); assay type: cell-based, murine; settings: for Dose.FC.LYZ.NS: FC vs plate median; for Z.LYZ.NS: standard z score of FC
Excerpt: (§1) High-throughput screening.

ISC-enriched organoids [2] = test: Primary screen, 384-well 2.5-D organoid differentiation (ENR+CD, 6 days): carbachol-induced lysozyme secretion (LYZ.S); assay type: cell-based, murine; settings: for Dose.FC.LYZ.S: FC vs plate median
Excerpt: as §1

ISC-enriched organoids [3] = test: Primary screen, 384-well 2.5-D organoid differentiation (ENR+CD, 6 days, Target Selective Inhibitor Library, vs whole-plate median): ATP (CellTiter-Glo 3D, CTG); settings: for Dose.FC.CTG: FC vs plate median; for Z.CTG: standard z score of FC
[4] = dose 0.08 uM (1st of 4 lines per treatment; dose not printed in this part)
[5] = dose 0.40 uM (2nd of 4 lines per treatment; dose not printed in this part)
[6] = dose 2.00 uM (3rd of 4 lines per treatment; dose not printed in this part)
[7] = dose 10.00 uM (4th of 4 lines per treatment; dose not printed in this part)
[8] = primary screen, dose 0.08 uM, ENR+CD 6 days
[9] = primary screen, dose 0.40 uM, ENR+CD 6 days
[10] = primary screen, dose 2.00 uM, ENR+CD 6 days
[11] = primary screen, dose 10.00 uM, ENR+CD 6 days

CC1(C)CCC(CN2CCN(c3ccc(C(=O)NS(=O)(=O)c4ccc(NCC5CCOCC5)c([N+](=O)[O-])c4)c(Oc4cnc5[nH]ccc5c4)c3)CC2)=C(c2ccc(Cl)cc2)C1 [ABT-199 (GDC-0199)]
SSMD.LYZ.NS_Rep (strictly standardized mean difference) (ISC-enriched organoids [1]; [4]): −0.009 | SSMD.LYZ.NS_Rep (strictly standardized mean difference) (ISC-enriched organoids [1]; [5]): −0.192 | SSMD.LYZ.NS_Rep (strictly standardized mean difference) (ISC-enriched organoids [1]; [6]): −0.116 | SSMD.LYZ.NS_Rep (strictly standardized mean difference) (ISC-enriched organoids [1]; [7]): −0.810 | Dose.FC.LYZ.NS (ISC-enriched organoids [1]; [8]): −0.002 log 2 fold change | Z.LYZ.NS (ISC-enriched organoids [1]; primary screen, dose 0.08 uM): −0.013 | Dose.FC.LYZ.NS (ISC-enriched organoids [1]; [9]): −0.029 log 2 fold change | Z.LYZ.NS (ISC-enriched organoids [1]; primary screen, dose 0.40 uM): −0.251 | Dose.FC.LYZ.NS (ISC-enriched organoids [1]; [10]): −0.016 log 2 fold change | Z.LYZ.NS (ISC-enriched organoids [1]; primary screen, dose 2.00 uM): −0.136 | Dose.FC.LYZ.NS (ISC-enriched organoids [1]; [11]): −0.169 log 2 fold change | Z.LYZ.NS (ISC-enriched organoids [1]; primary screen, dose 10.00 uM): −1.471 | SSMD.LYZ.S_Rep (strictly standardized mean difference) (ISC-enriched organoids [2]; [4]): −0.260 | Z.LYZ.S (standard z score) (ISC-enriched organoids [2]; [4]): −0.285 | SSMD.LYZ.S_Rep (strictly standardized mean difference) (ISC-enriched organoids [2]; [5]): 0.443 | Z.LYZ.S (standard z score) (ISC-enriched organoids [2]; [5]): 0.494 | SSMD.LYZ.S_Rep (strictly standardized mean difference) (ISC-enriched organoids [2]; [6]): −0.368 | Z.LYZ.S (standard z score) (ISC-enriched organoids [2]; [6]): −0.404 | SSMD.LYZ.S_Rep (strictly standardized mean difference) (ISC-enriched organoids [2]; [7]): −1.131 | Z.LYZ.S (standard z score) (ISC-enriched organoids [2]; [7]): −1.890 | Dose.FC.LYZ.S (ISC-enriched organoids [2]; [8]): −0.044 log 2 fold change | Dose.FC.LYZ.S (ISC-enriched organoids [2]; [9]): 0.076 log 2 fold change | Dose.FC.LYZ.S (ISC-enriched organoids [2]; [10]): −0.063 log 2 fold change | Dose.FC.LYZ.S (ISC-enriched organoids [2]; [11]): −0.292 log 2 fold change | SSMD.CTG_Rep (strictly standardized mean difference) (ISC-enriched organoids [3]; [4]): 0.051 | SSMD.CTG_Rep (strictly standardized mean difference) (ISC-enriched organoids [3]; [5]): 0.111 | SSMD.CTG_Rep (strictly standardized mean difference) (ISC-enriched organoids [3]; [6]): −0.377 | SSMD.CTG_Rep (strictly standardized mean difference) (ISC-enriched organoids [3]; [7]): −1.402 | Dose.FC.CTG (ISC-enriched organoids [3]; [8]): 0.019 log 2 fold change | Z.CTG (ISC-enriched organoids [3]; primary screen, dose 0.08 uM): 0.045 | Dose.FC.CTG (ISC-enriched organoids [3]; [9]): 0.038 log 2 fold change | Z.CTG (ISC-enriched organoids [3]; primary screen, dose 0.40 uM): 0.090 | Dose.FC.CTG (ISC-enriched organoids [3]; [10]): −0.278 log 2 fold change | Z.CTG (ISC-enriched organoids [3]; primary screen, dose 2.00 uM): −0.665 | Dose.FC.CTG (ISC-enriched organoids [3]; [11]): −0.519 log 2 fold change | Z.CTG (ISC-enriched organoids [3]; primary screen, dose 10.00 uM): −1.240

CC(C)c1cc(-c2n[nH]c(=O)n2-c2ccc3c(ccn3C)c2)c(O)cc1O [Ganetespib (STA-9090)]
Dose.FC.LYZ.NS (ISC-enriched organoids [1]; Dose 0.08 uM, ENR+CD, 6 days): −0.141 log 2 fold change | Z.LYZ.NS (ISC-enriched organoids [1]; Dose 0.08 uM): −1.226 | Dose.FC.LYZ.NS (ISC-enriched organoids [1]; Dose 0.40 uM, ENR+CD, 6 days): −0.155 log 2 fold change | Z.LYZ.NS (ISC-enriched organoids [1]; Dose 0.40 uM): −1.345 | Dose.FC.LYZ.NS (ISC-enriched organoids [1]; Dose 2.00 uM, ENR+CD, 6 days): −0.150 log 2 fold change | Z.LYZ.NS (ISC-enriched organoids [1]; Dose 2.00 uM): −1.309 | Dose.FC.LYZ.NS (ISC-enriched organoids [1]; Dose 10.00 uM, ENR+CD, 6 days): −0.136 log 2 fold change | Z.LYZ.NS (ISC-enriched organoids [1]; Dose 10.00 uM): −1.181 | Dose.FC.LYZ.S (ISC-enriched organoids [2]; Dose 0.08 uM, ENR+CD, 6 days): −0.260 log 2 fold change | Dose.FC.LYZ.S (ISC-enriched organoids [2]; Dose 0.40 uM, ENR+CD, 6 days): −0.250 log 2 fold change | Dose.FC.LYZ.S (ISC-enriched organoids [2]; Dose 2.00 uM, ENR+CD, 6 days): −0.260 log 2 fold change | Dose.FC.LYZ.S (ISC-enriched organoids [2]; Dose 10.00 uM, ENR+CD, 6 days): −0.267 log 2 fold change | Dose.FC.CTG (ISC-enriched organoids [3]; Dose 0.08 uM, ENR+CD, 6 days): −1.450 log 2 fold change | Z.CTG (ISC-enriched organoids [3]; Dose 0.08 uM): −3.465 | Dose.FC.CTG (ISC-enriched organoids [3]; Dose 0.40 uM, ENR+CD, 6 days): −2.105 log 2 fold change | Z.CTG (ISC-enriched organoids [3]; Dose 0.40 uM): −5.027 | Dose.FC.CTG (ISC-enriched organoids [3]; Dose 2.00 uM, ENR+CD, 6 days): −1.721 log 2 fold change | Z.CTG (ISC-enriched organoids [3]; Dose 2.00 uM): −4.110 | Dose.FC.CTG (ISC-enriched organoids [3]; Dose 10.00 uM, ENR+CD, 6 days): −1.620 log 2 fold change | Z.CTG (ISC-enriched organoids [3]; Dose 10.00 uM): −3.871

Nc1ncnc2n[nH]c(Nc3ccc(F)cc3)c12 [CGP57380]
Dose.FC.LYZ.NS (ISC-enriched organoids [1]; Dose 0.08 uM, ENR+CD, 6 days): 0.218 log 2 fold change | Z.LYZ.NS (ISC-enriched organoids [1]; Dose 0.08 uM): 1.900 | Dose.FC.LYZ.NS (ISC-enriched organoids [1]; Dose 0.40 uM, ENR+CD, 6 days): −0.041 log 2 fold change | Z.LYZ.NS (ISC-enriched organoids [1]; Dose 0.40 uM): −0.354 | Dose.FC.LYZ.NS (ISC-enriched organoids [1]; Dose 2.00 uM, ENR+CD, 6 days): −0.055 log 2 fold change | Z.LYZ.NS (ISC-enriched organoids [1]; Dose 2.00 uM): −0.477 | Dose.FC.LYZ.NS (ISC-enriched organoids [1]; Dose 10.00 uM, ENR+CD, 6 days): −0.037 log 2 fold change | Z.LYZ.NS (ISC-enriched organoids [1]; Dose 10.00 uM): −0.321 | Dose.FC.LYZ.S (ISC-enriched organoids [2]; Dose 0.08 uM, ENR+CD, 6 days): 0.096 log 2 fold change | Dose.FC.LYZ.S (ISC-enriched organoids [2]; Dose 0.40 uM, ENR+CD, 6 days): 0.054 log 2 fold change | Dose.FC.LYZ.S (ISC-enriched organoids [2]; Dose 2.00 uM, ENR+CD, 6 days): −0.095 log 2 fold change | Dose.FC.LYZ.S (ISC-enriched organoids [2]; Dose 10.00 uM, ENR+CD, 6 days): −0.088 log 2 fold change | Dose.FC.CTG (ISC-enriched organoids [3]; Dose 0.08 uM, ENR+CD, 6 days): 0.108 log 2 fold change | Z.CTG (ISC-enriched organoids [3]; Dose 0.08 uM): 0.258 | Dose.FC.CTG (ISC-enriched organoids [3]; Dose 0.40 uM, ENR+CD, 6 days): −0.293 log 2 fold change | Z.CTG (ISC-enriched organoids [3]; Dose 0.40 uM): −0.700 | Dose.FC.CTG (ISC-enriched organoids [3]; Dose 2.00 uM, ENR+CD, 6 days): −0.460 log 2 fold change | Z.CTG (ISC-enriched organoids [3]; Dose 2.00 uM): −1.098 | Dose.FC.CTG (ISC-enriched organoids [3]; Dose 10.00 uM, ENR+CD, 6 days): 0.055 log 2 fold change | Z.CTG (ISC-enriched organoids [3]; Dose 10.00 uM): 0.132
